Four compounds from ChEMBL document CHEMBL2380200, “Enantioselective inhibition of microbial lipolytic enzymes by nonracemic monocyclic enolphosphonate analogues of cyclophostin” (J Med Chem, 2013) can be followed below.

Assay [1] relates to Mycobacterium tuberculosis. Nature of the assay: Inhibition of Mycobacterium tuberculosis triacylglycerol lipase LipY at 20 molar excess compound concentration preincubated with enzyme measured after 30 mins by pH-stat technique relative to control.
Assay [2] deals with Mycobacterium tuberculosis. Nature of the assay: Inhibition of Mycobacterium tuberculosis monoacylglycerol lipase Rv0183 preincubated with enzyme measured after 30 mins by pH-stat technique.
In assay [3] the test system is Mycobacterium tuberculosis. Nature of the assay: Inhibition of Mycobacterium tuberculosis monoacylglycerol lipase Rv0183 at 20 molar excess compound concentration preincubated with enzyme measured after 30 mins by pH-stat technique relative to control.
Assay [4] deals with Mycobacterium tuberculosis. Nature of the assay: Inhibition of Mycobacterium tuberculosis triacylglycerol lipase LipY preincubated with enzyme measured after 30 mins by pH-stat technique.
Assay [5] concerns the target T1, Cutinase 1 (Fusarium vanettenii) (UniProt P00590).
T1 sequence (whole entry): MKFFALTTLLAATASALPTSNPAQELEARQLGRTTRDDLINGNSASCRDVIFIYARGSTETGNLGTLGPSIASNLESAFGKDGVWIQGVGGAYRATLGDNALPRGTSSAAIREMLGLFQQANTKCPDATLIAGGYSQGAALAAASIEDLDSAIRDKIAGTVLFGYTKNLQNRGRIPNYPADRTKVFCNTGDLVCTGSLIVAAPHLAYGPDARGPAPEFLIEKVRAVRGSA
Nature of the assay: Inhibition of Fusarium solani pisi cutinase preincubated with enzyme measured after 30 mins by pH-stat technique.

Assay [6] has as its target T1, Cutinase 1 (Fusarium vanettenii). Nature of the assay: Inhibition of Fusarium solani pisi cutinase at 20 molar excess compound concentration preincubated with enzyme measured after 30 mins by pH-stat technique relative to control.

What is called inhibition is the relative decrease from the control value, in per cent. Read a low inhibition as a weak effect. For `CCCCCCCCCC[C@H]1CC[P@@](=O)(OC)OC(C)=C1C(=O)OC`, the results for the inhibition in assay [1], in assay [3] and in assay [6] were 39.8%, 78.7% and 22.5%, respectively. In addition, the XI50 in assay [2] was 11.3 molar excess; in assay [4], 25.9 molar excess; in assay [5], 97.3 molar excess.

As to `CCCCCCCCCC[C@@H]1CC[P@](=O)(OC)OC(C)=C1C(=O)OC`, the inhibition in assay [1] is 49.6%; in assay [3], 93.1%; in assay [6], 86.5%. Also, the XI50 in assay [2] was 1.24 molar excess; in assay [4], 15.4 molar excess; in assay [5], 4.07 molar excess.

Take `CCCCCCCCCC[C@@H]1CC[P@@](=O)(OC)OC(C)=C1C(=O)OC`: the inhibition in assay [1] amounted to 82.8%; in assay [3] it was 87.7%; in assay [6] it was 91.8%. Moreover, the figures for the XI50 in assay [2], in assay [4] and in assay [5] were 7.61 molar excess, 1.64 molar excess and 3.38 molar excess, respectively.

As for `CCCCCCCCCC[C@H]1CC[P@](=O)(OC)OC(C)=C1C(=O)OC`, the inhibition stood at 42.1% in assay [1], 96.6% in assay [3] and 93.2% in assay [6]. The XI50 is 1.16 molar excess in assay [2], 20 molar excess in assay [4] and 2.52 molar excess in assay [5].
